The source of these data is ChEMBL document CHEMBL1122072, “Structure-activity correlations of cytochalasins. Novel halogenated and related cytochalasin C and D derivatives” (1982).

The species entered for the first assay is Mus musculus. As to the kind of experiment: (§1) Evaluated for the inhibition of cell-free gelation in Ehrlich Ascites tumor extracts. The assay is classed as functional.
Conditions: not given
As to `CC(=O)OC1/C=C\C(C)(O)C(=O)C(C)C/C=C/C2C(O)C(CC#N)=C(C)C3C(Cc4ccccc4)NC(=O)C123` (configuration not stated), the ID50 came out at 7700 nM. The same measure, in the same setting: to `CC(=O)OC1/C=C\C(C)(O)C(=O)C(C)C/C=C/C2C(O)C(Br)(CBr)C(C)C3C(Cc4ccccc4)NC(=O)C123` (configuration not stated) belongs 4500 nM.

A further assay concerns Ehrlich. The assay is described as §1. The assay is classed as functional. Particulars: Mus musculus, read-out: ID50 (the source's name).
Take `CC(=O)OC1/C=C\C(C)(O)C(=O)C(C)C/C=C/C2C(O)C(CI)=C(C)C3C(Cc4ccccc4)NC(=O)C123` (configuration not stated): the IC50 was determined as 600 nM.

For `CC(=O)OC1/C=C\C(C)(O)C(=O)C(C)C/C=C/C2C(O)C(CN=[N+]=[N-])=C(C)C3C(Cc4ccccc4)NC(=O)C123` (configuration not stated), the IC50 was found to be 880 nM. On to `C=C1C(C)C2C(Cc3ccccc3)NC(=O)C23C(OC(C)=O)/C=C\C(C)(O)C(=O)C(C)C/C=C/C3C1O` (configuration not stated), for which the IC50 is 210 nM. As for `CC(=O)OC1/C=C\C(C)(O)C(=O)C(C)C/C=C/C2C(O)C(CBr)=C(C)C3C(Cc4ccccc4)NC(=O)C123` (configuration not stated), the IC50 was found to be 740 nM.

For the molecule `CC(=O)OC1/C=C\C(C)(O)C(=O)C(C)C/C=C/C2C(O)C(C)=C(C)C3C(Cc4ccccc4)NC(=O)C123` (configuration not stated), the IC50 is 350 nM.
